Assay results from PMC7377376, “Drug targeting CYP2E1 for the treatment of early-stage alcoholic steatohepatitis” (PLoS ONE, 2020).
Like-named read-outs stand apart in the source and are kept apart here.

Assays:
CYP2E1 [1] = conditions: cited from earlier work
CYP2E1 [2] = conditions: cited from earlier work; remark: listed apart in the source
[3] = target: T1, human cytochrome P450 2E1 (Homo sapiens, UniProt P05181); assay: Steady-state p-nitrophenol oxidation, CYP2E1 inhibition in SUPERSOMES; format: biochemical
T1 construct: purchased BD Biosciences
T1 sequence (P05181 whole entry): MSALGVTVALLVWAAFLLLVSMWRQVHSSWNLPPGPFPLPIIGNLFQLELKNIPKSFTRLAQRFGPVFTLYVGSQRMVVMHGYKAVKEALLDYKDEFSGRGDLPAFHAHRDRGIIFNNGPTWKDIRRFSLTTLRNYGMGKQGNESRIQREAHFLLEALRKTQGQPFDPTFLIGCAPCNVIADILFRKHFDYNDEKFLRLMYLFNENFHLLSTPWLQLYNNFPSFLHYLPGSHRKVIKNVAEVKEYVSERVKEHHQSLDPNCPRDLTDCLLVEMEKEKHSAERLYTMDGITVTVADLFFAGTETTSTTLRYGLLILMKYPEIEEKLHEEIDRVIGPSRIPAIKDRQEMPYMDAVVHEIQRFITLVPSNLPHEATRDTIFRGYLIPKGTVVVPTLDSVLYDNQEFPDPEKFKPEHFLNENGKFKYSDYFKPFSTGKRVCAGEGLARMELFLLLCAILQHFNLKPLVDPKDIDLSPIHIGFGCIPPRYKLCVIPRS
Experimental: Initial velocities of the oxidation of p-nitrophenol (p-NP) to p-nitrocatechol by human cytochrome P450 2E1 were determined by measuring the absorption at 535 nm or 546 nm to determine product formation as described before.
Alternatively, 100 mM HEPES pH 7.6 was additionally used for the enzyme kinetic measurements. A final concentration of either 50 nM enzyme in form of SUPERSOMES™ from BD Biosciences or microsomes in case of cell culture experiments was added. Reaction was initiated by adding 500 μM (enzyme kinetic measurements) or 0.1 mM (cell culture experiments) NADPH after preincubation at 37° C and stopped by adding 20% trichloroacetic acid (TCA) after 30 minutes to ensure linearity of product formation. The protein concentration for the microsomal fraction was determined by Bradford assay to calculate the results expressed as units of specific activity defined as the amount of enzyme that consumes 1 μmol/L of NADPH per hour per microgram of protein. Inhibitor stock solutions were prepared in 0.1% DMSO and diluted to a final DMSO concentration of 0.003% in the reaction mixture at most to avoid enzyme inhibition by this solvent. Inhibitory constants (Ki) were calculated by non-linear fitting of initial velocities. Maximum inhibition could not be achieved since final inhibitor concentrations were limited by DMSO.
Supplementary file pone.0235990.s002.tif: S2 Fig CYP2E1 inhibition by data base inhibitors. To ascertain whether an imidazole containing compound is already commercially available and better suited for development as a drug can-didate, we performed a large virtual library screening of the ZINK database. We found 14,738 hits. The 5,261 commercially available compounds could be classified as 4,710 synthetic and 551 natural molecules. After docking and final scoring process, the seven best synthetic and the three best natural candidates were purchased and tested in vitro for their potential to inhibit CYP2E1 activity. Different concentrations of these compounds dissolved in DMSO were added to 110 μM p-Nitrophenol in 100 mM HEPES buffer pH 7.6 and SUPERSOMES™ with 50 nM human CYP 2E1 to calculate relative activity values. […] 20 μM corresponds to a DMSO volume of 0.02% (v/v). (TIF) Click here for additional data file.

ethanol-fed Wistar rats [4] = assay: Liver and serum lipid parameters of ethanol-fed rats; format: in vivo, rat
Description: (§1) A total of 68 female Wistar rats (Institute of Pharmacology and Biochemistry Breeding House, Minsk, Belarus) aged 80–90 days and weighting 180–200 g at the beginning of the experiments were used in the study. Each rat group (n = 6–8) was housed in a separate cage and had free access to the liquid diet during the full study period. Prior to the study, the animals were habituated for seven days to the cage conditions and experimental handling. The rats were maintained in a controlled experimental environment (20–25°C, 40–50% humidity, 12 h light per day, room with a 12-h light/dark cycle).
(§2) Rats were divided into ten groups characterized by the diet and the test compounds (S1 Table). Group 1 is the first control group in which a normal solid standard diet was fed for 12 weeks. All other groups received the liquid Lieber-DeCarli (LDC) diet (S2 Table), which combines food and drink in a liquid manner. It was prepared by ssniff Spezialdiäten GmbH, Soest. The addition of maltodextrin to this diet should compensate the pure caloric effect of ethanol, whereby 1.77 g maltodextrin replaces 1 g ethanol. The calorie value of both the control and ethanol diets was the same: 35% calories from fat, 11% from carbohydrates, 18% from protein and 36% from ethanol.
(§3) In the first two weeks rats of all groups–with the exception of group 1 –were fed with LDC diet plus maltodextrin in an appropriate amount to adapt the animals to the liquid diet. Group 2 is the second control group in which the isocaloric diet was administered for further 10 weeks until the end of the experiment. […] The test compounds I-ol, I-an and UDCA were dissolved in a 0.8% aqueous HPMC gel to obtain the appropriate concentrations: (1) I-ol with 0.4, 4 and 40 mg/kg b. w. (2) I-an with 0.4, 4 and 40 mg/kg b. w. (3) UDCA with 40 mg/kg b. w. Rats of group 2 and 3 received only HPMC as a placebo. The LDC diets were fed ad libitum and their intake per cage was controlled daily. The corresponding bottles were stored in the cages from 08:00 a. m. until 06:00 p. m. and replaced by drinking water bottles overnight until 08:00 a. m. in the next morning. Every day at the same time, the test compounds or only HPMC were administered intragastrically by oral gavage with an administration volume of 2 ml/kg b. w. After ten weeks of treatment, the rats were anesthetized with an intraperitoneal injection of a 5% pentobarbital solution and then killed by aorta scarification. Their livers were dissected and liver pieces frozen and stored in liquid nitrogen. A part of the liver was fixed for histological investigations. Blood was collected before sacrifice, centrifuged for serum preparation and finally stored in liquid nitrogen.
(§4) The serum marker enzyme activities, alanine aminotransferase (ALT), aspartate aminotransferase (AST), alkaline phosphatase (AP) and gamma-glutamyltransferase (γ-GT) as well as triglycerides and bilirubin were measured according to manufacturer’s instructions using standard commercial kits from Lachema (PLIVA-Lachema Diagnostika, Czech Republic). Serum concentrations of leptin, adiponectin and TNF-alpha were analyzed using commercial ELISA test kits: BioCat GmbH (Heidelberg, German) for adiponectin and TNF-alpha, BioVendor Laboratory Medicine Inc. (Brno, Czech Republic) for leptin. Insulin serum concentration was determined by radioimmunoassay using the commercially available kit RIO-insulin-PG-J125 (IBOCH, Minsk, Belarus). Glucose serum concentration was determined by the Accu-Check Active blood glucose testing system from Roche-Diagnostics GmbH (Mannheim, Germany).
Lipids were extracted with a chloroform: methanol mixture (2:1 v/v). Neutral lipids and phospholipids were separated into classes by thin-layer chromatography (TLC). Lipid fractions (triglycerides, cholesterol and its fractions) were measured in extracts from scraped spots by routine methods using the appropriate commercial kits. […]

ethanol-fed Wistar rats [5] = assay: Liver histopathology of ethanol-fed rats; format: in vivo, rat; conditions: I-ol, I-an in their higher concentrations; UDCA 40 mg/kg b.w.; H.E. staining
Experimental: as §3
Liver samples were selected randomly, fixed in Bouin`s solution and embedded in paraffin wax. Histological sections were prepared and stained with haematoxylin and eosin. Other liver samples were fixed in a solution containing formaldehyde, paraformaldehyde and glutaraldehyde with a subsequent post-fixation in 1% osmium containing phosphate buffer pH 7.4 for further analysis. Liver tissue was embedded in a mixture of butyl-methyl-metacrylates. Semifine sections of 0.5–1.0 μm were stained with Asur II, methylen blue and basic fuxine.

[6] = cited from earlier work
ethanol-fed Wistar rats [7] = assay: Oxidative stress parameters in liver of ethanol-fed rats (Lieber-DeCarli diet); format: in vivo; conditions: rat liver
Description: as §1, §2, §3
The generation of reactive oxygen species (ROS) in rat liver was evaluated by NADPH-induced chemiluminescence with amplification by both luminol for the detection of superoxide (SRA) radical anion and lucigenin detecting hydrogen peroxide as described by Müller-Peddinhaus. In short, liver pieces were homogenized in 0.1 M sodium phosphate buffer pH 7.4. The homogenates were centrifuged at 9,000 x g at 0°C and aliquots were used for the measurement. Reduced glutathione (GSH) was determined by a modified Ellman`s method: 0.2 ml of the liver homogenates’ supernatant were added to 1.6 ml of an EDTA-/sodium […] solution. The absorbance was read at […] against blanks. GSH solution—prepared immediately before use—served as a standard. End products of the lipid peroxidation reaction are equivalent to TBARS (thiobarbituric acid-reacting substances) and their concentration was measured according to Buege et al.. The enzymatic activity of cytosolic glutathione peroxidase (GPx) and microsomal glutathione reductase (GR) were determined as described by Buko at al.. Catalase activity was evaluated by spectrophotometric measurement using hydrogen peroxide as a substrate according to Beers et al.. […]

ethanol-fed Wistar rats [8] = assay: Serum liver enzyme activities of ethanol-fed rats; format: in vivo, rat
Description: as §1, §2, §3, §4

cholesterol synthesis = system: cholesterol synthesis; design: method as in printed; conditions: high concentrations (> or =1.0 mmol/L); ref not given; cited from earlier work
[9] = liver, average over doses (UDCA 40 mg/kg)
[10] = serum, average over doses (UDCA 40 mg/kg)
[11] = average over 0.4/4/40 mg/kg b.w. (UDCA 40 mg/kg), oral, 10 weeks
[12] = average over doses (UDCA 40 mg/kg)
[13] = literature survey, ref not given

In the case of O=C(O)CCCCCCCCCCCn1ccnc1 [12 (imidazolyl) dodecanoic acids, 12-(imidazolyl)-dodecanoic acid], the “affinity to CYP2E1 compared to other ω imidazolyl alkanoic acids (in words)” value (CYP2E1 [1]; ref Porubsky, Battaile et al. 2010) is given as “highest affinity”.

For Silymarin, the “effect on CYP2E1 activity (in words)” value (CYP2E1 [2]) is listed as “Has no influence on CYP2E1 activity. Clinical trails with patients having alcoholic liver cirrhosis showed controversial results”.

With C[S+](C)[O-] [DMSO] the IC50 ([3]; solvent inhibition of CYP2E1) was 0.065 % (v/v).

In the case of OCCCCCCCCCCn1ccnc1 [I-decanol, 10-imidazolyl-1-decanol], the “inhibitory effect on CYP2E1 (in words)” value ([3]; human CYP2E1 SUPERSOMES) is reported as “almost identical”.

Compound C[N+](C)(C)CCOP(=O)([O-])OCCCCCCCCCCCCn1ccnc1 [I-phosphocholine, 12-Imidazolyl-dodecan-1-yl-phosphocholine] has a Ki ([3]; human CYP2E1 SUPERSOMES, p-nitrophenol oxidation, competitive model with offset) of 22 µM.

With C[C@H](CCC(=O)O)[C@H]1CC[C@H]2[C@@H]3[C@@H](O)C[C@@H]4C[C@H](O)CC[C@]4(C)[C@H]3CC[C@]12C [UDCA, ursodeoxycholic acid, reference compound] the “liver cholesterol decrease compared to disease group” value (ethanol-fed Wistar rats [4]; liver, UDCA 40 mg/kg) was 11%, the “reduction of ethanol effect on hepatic cholesterol” value (ethanol-fed Wistar rats [4]; liver, UDCA 40 mg/kg) was 78% and the “reduction of ethanol effect on hepatic triglycerides” value (ethanol-fed Wistar rats [4]; liver, average over 0.4/4/40 mg/kg b.w. (UDCA 40 mg/kg), oral, 10 weeks) was 55%. The “liver phospholipids decrease compared to disease group” value (ethanol-fed Wistar rats [4]; [9]) was 20%, the “liver triglycerides decrease compared to disease group” value (ethanol-fed Wistar rats [4]; [9]) was 31% and the “reduction of ethanol effect on hepatic phospholipids” value (ethanol-fed Wistar rats [4]; [9]) was “completely eliminated”. For the same compound, the “reduction of ethanol effect on serum LDL cholesterol” value (ethanol-fed Wistar rats [4]; serum, UDCA 40 mg/kg) was “no significant effect”, the “reduction of ethanol effect on serum VLDL” value (ethanol-fed Wistar rats [4]; serum, UDCA 40 mg/kg) was “no statistically significant reduction” and the “reduction of ethanol effect on serum triglycerides” value (ethanol-fed Wistar rats [4]; [10]) was 79%. The “serum triglycerides decrease compared to disease group” value (ethanol-fed Wistar rats [4]; [10]) was 39%, the “liver morphology (histopathology, in words)” value (ethanol-fed Wistar rats [5]) was “reduce the histopathological effects of ethanol in a comparable way” and the “long-term high-dose safety finding” value ([6]; 28–30 mg/kg/day, patients with ulcerative colitis and PSC) was “increased risk of colorectal neoplasia”. The “mortality at maximum follow-up versus no intervention group” value ([6]; network meta-analysis, alcoholic liver disease) was “higher”, the “reduction of ethanol effect on hydrogen peroxide” value (ethanol-fed Wistar rats [7]; I-ol, I-an 0.4/4/40 mg/kg b.w., UDCA 40 mg/kg, oral, 10 weeks) was 46% and the “GPx activity decrease compared to disease group” value (ethanol-fed Wistar rats [7]; UDCA 40 mg/kg b.w.) was 21%. For the same compound, the “reduction of ethanol effect on TBARS” value (ethanol-fed Wistar rats [7]; average over 0.4/4/40 mg/kg b.w. (UDCA 40 mg/kg)) was “no statistic significant reduction”, the “reduction of ethanol effect on superoxide radical anion (SRA)” value (ethanol-fed Wistar rats [7]; average over 0.4/4/40 mg/kg b.w. (UDCA 40 mg/kg), daily oral gavage, 10 weeks) was “no statistic significant reduction” and the “hydrogen peroxide decrease compared to disease group” value (ethanol-fed Wistar rats [7]; [11]) was 32%. For the same compound, the “reduction of ethanol effect on reduced glutathione (GSH)” value (ethanol-fed Wistar rats [7]; [11]) was “no statistically significant changes”, the “reduction of ethanol effect on glutathione reductase (GR) activity” value (ethanol-fed Wistar rats [7]; [12]) was “no statistically significant result” and the “GPx activity below the reference value in healthy animals” value (ethanol-fed Wistar rats [7]; highest concentration (UDCA 40 mg/kg b.w.)) was 28%. For the same compound, the “reduction of ethanol effect on γ-GT activity” value (ethanol-fed Wistar rats [8]; UDCA 40 mg/kg) was 61%, the “ALT activity decrease compared to disease group” value (ethanol-fed Wistar rats [8]; [12]) was 33% and the “AP activity decrease compared to disease group” value (ethanol-fed Wistar rats [8]; [12]) was 20%. For the same compound, the “AST activity decrease compared to disease group” value (ethanol-fed Wistar rats [8]; [12]) was 19%, the “reduction of ethanol effect on AST activity” value (ethanol-fed Wistar rats [8]; [12]) was 83% and the “γ-GT activity decrease compared to disease group” value (ethanol-fed Wistar rats [8]; [12]) was 33%. For the same compound, the “reduction of ethanol effect on alkaline phosphatase (AP) activity” value (ethanol-fed Wistar rats [8]; on average (UDCA 40 mg/kg)) was 66%.

In the case of C[S+](CC[C@H](N)C(=O)[O-])C[C@H]1O[C@@H](n2cnc3c(N)ncnc32)[C@H](O)[C@@H]1O (stereo partly drawn) [S-adenosyl-L-methionine (SAM), S-adenosyl-L-methionine], the “effect on CYP2E1 activity (in words)” value (CYP2E1 [2]; [13]) is listed as “CYP2E1 activity (SAM is a non-competitive inhibitor), reactive oxygen species, anti-fibrogenic action, clinical trial”.

For O=C(O)CCCCCn1ccnc1 [ω-imidazolylhexanoic acid], the spin shift (CYP2E1 [1]) is given as “missing spin shift”.

In the case of C=CCSSCC=C [Diallyl disulfide (DADS), Diallyl disulfide], the “cholesterol synthesis (in words)” value (cholesterol synthesis) is given as “abolished”.

For C[S+]([O-])CCCCN=C=S (stereo not shown) [Sulforaphane], the “effect on CYP2E1 activity (in words)” value (CYP2E1 [2]; [13]) is listed as “Sulforaphane does not inhibit CYP2E1 in the knockin mouse modell”.

In the case of C[N+](C)(C)CC(=O)O [Betaine], the “effect on CYP2E1 activity (in words)” value (CYP2E1 [2]; [13]) is listed as “Betaine reduces CYP2E1 activity only to a minor extend, while attenuating ASH. People with high cholesterol should use betaine anhydrous cautiously”.

In the case of OCCCCCCCCCn1ccnc1 [I-nonanol, 9-imidazolyl-1-nonanol], the “inhibitory effect on CYP2E1 (in words)” value ([3]; human CYP2E1 SUPERSOMES) is reported as “almost identical”.

For OCCCCCCCn1ccnc1 [I-heptanol, 7-imidazolyl-1-heptanol], the “inhibitory effect on CYP2E1 (in words)” value ([3]; human CYP2E1 SUPERSOMES) was “dramatic decrease in inhibitory performance”.
